Assay results: patent publication USRE32300E, “Basic amino or ammonium antimicrobial agent-polyethylene glycol ester surfactant-betaine and/or amine oxide surfactant compositions and method of use thereof” (Sterling Drug Inc., priority 1985, dated 1986)

Test system: Staphylococcus aureus ATCC 6538
Assay: serial dilution test against Staphylococcus aureus ATCC 6538 (compatibility of antimicrobial agents with prototype vehicle)
Assay type: cell-based
Details: Id expressed as free base, IVa-IVc as cation (A=Br)
Protocol: Compatability of the antimicrobial agents of Formula Id, Formula IIa, Formula IVa (A=Br), Formula IVb (A=Br) and Formula IVc (A=Br) with a prototype vehicle of the invention was tested by a serial dilution test against Staphylococcus aureus ATCC 6538. Volumes of two milliliters were used. Dilutions were in tryptosephosphate broth. Incubation was for 16-18 hours at 37° C. Growth was verified with 2,3,5-triphenyltetrazoliumchloride. The inoculum was 1.8×10^5 viable cells per tube. There follows the formula of the prototype vehicle.

| SMILES | Minimum Inhibitory Concentration (MIC) (added vehicle 125.0 μg/ml) | Minimum Inhibitory Concentration (MIC) (added vehicle 250.0 μg/ml) | Minimum Inhibitory Concentration (MIC) (added vehicle 500.0 μg/ml) | Minimum Inhibitory Concentration (MIC) (added vehicle 2000.0 μg/ml) | Minimum Inhibitory Concentration (MIC) (added vehicle 8000.0 μg/ml) | Minimum Inhibitory Concentration (MIC) (added vehicle 0 μg/ml) | Minimum Inhibitory Concentration (MIC) (added vehicle 15.6 μg/ml) | Minimum Inhibitory Concentration (MIC) (added vehicle 31.2 μg/ml) | Minimum Inhibitory Concentration (MIC) (added vehicle 62.5 μg/ml) |
| --- | --- | --- | --- | --- | --- | --- | --- | --- | --- |
| CCCCCCCNc1cc[n+](CCCCCCCCCCCC[n+]2ccc(NCCCCCCC)cc2)cc1 [Formula IVa] | 0.10 µg/mL | 0.10 µg/mL | 0.10 µg/mL | 0.10 µg/mL | 0.10 µg/mL |  |  |  |  |
| CCCCCCCCNc1cc[n+](CCCCCCCCCC[n+]2ccc(NCCCCCCCC)cc2)cc1 [Formula IVb] | 0.5 µg/mL |  |  |  |  | 0.5 µg/mL | 0.5 µg/mL | 0.5 µg/mL | 0.5 µg/mL |
